Results from the supplement of paper PMC13380429.

What was measured:
Conditions in all cases: 72 h
Caco-2 [1] = assay: relative viability EC50 (midpoint between 100% and the lowest measured viability); higher = less toxic
Vero E6 [2] = assay: as above
U2OS [3] = assay: as above
HepG2 [4] = assay: as above
Caco-2 [5] = assay: drug sensitivity score (DSS) for viability; higher = more toxic; extreme values may be limits of the assay
Vero E6 [6] = assay: as above
U2OS [7] = assay: as above
HepG2 [8] = assay: as above
Caco-2 [9] = assay: cell viability relative to DMSO; higher = less toxic
Vero E6 [10] = assay: as above
U2OS [11] = assay: as above
HepG2 [12] = assay: as above
Calu-3 [13] = assay: drug sensitivity score (DSS) for viability; higher = more toxic; extreme values may be limits of the assay
Calu-3 [14] = assay: cell viability relative to DMSO; higher = less toxic

Row | SMILES | relative viability EC50 (Caco-2 [1]) | relative viability EC50 (Vero E6 [2]) | relative viability EC50 (U2OS [3]) | relative viability EC50 (HepG2 [4]) | drug sensitivity score (Caco-2 [5]) | drug sensitivity score (Vero E6 [6]) | drug sensitivity score (U2OS [7]) | drug sensitivity score (HepG2 [8]) | cell viability (Caco-2 [9]; 1 nM) | cell viability (Caco-2 [9]; 10 nM) | cell viability (Caco-2 [9]; 100 nM) | cell viability (Caco-2 [9]; 1000 nM) | cell viability (Caco-2 [9]; 10000 nM) | cell viability (Vero E6 [10]; 1 nM) | cell viability (Vero E6 [10]; 10 nM) | cell viability (Vero E6 [10]; 100 nM) | cell viability (Vero E6 [10]; 1000 nM) | cell viability (Vero E6 [10]; 10000 nM) | cell viability (U2OS [11]; 1 nM) | cell viability (U2OS [11]; 10 nM) | cell viability (U2OS [11]; 100 nM) | cell viability (U2OS [11]; 1000 nM) | cell viability (U2OS [11]; 10000 nM) | cell viability (HepG2 [12]; 1 nM) | cell viability (HepG2 [12]; 10 nM) | cell viability (HepG2 [12]; 100 nM) | cell viability (HepG2 [12]; 1000 nM) | cell viability (HepG2 [12]; 10000 nM) | drug sensitivity score (Calu-3 [13]) | cell viability (Calu-3 [14]; 1 nM) | cell viability (Calu-3 [14]; 10 nM) | cell viability (Calu-3 [14]; 100 nM) | cell viability (Calu-3 [14]; 1000 nM) | cell viability (Calu-3 [14]; 10000 nM)
1 | CCNCc1cc(C(C)(C)C)c(O)c(C(C)(C)C)c1 | > 10 µM | > 10 µM | > 10 µM | > 10 µM | 0 | 0 | 0 | 0 | 103% | 97.8% | 96.1% | 98.2% | 99.8% | 101% | 104% | 96.7% | 97.2% | 105% | 102% | 103% | 98.5% | 101% | 96.5% | 99.1% | 99.7% | 99.6% | 98.4% | 105% | – | – | – | – | – | –
2 | CN1C(=O)N(c2cc(Cl)cc(Cl)c2)C(=O)[C@]12CN(Cc1cc(C(=O)O)cs1)C[C@H]2c1ccc(C#N)cc1 | > 10 µM | > 10 µM | > 10 µM | > 10 µM | 0 | 0 | 0 | 0 | 109% | 94.8% | 100% | 103% | 93.7% | 98.3% | 101% | 95.5% | 96.6% | 105% | 104% | 97.8% | 101% | 103% | 100% | 101% | 112% | 109% | 98.1% | 104% | – | – | – | – | – | –
3 | CC12CCC(C(Br)C1=O)C2(C)C (stereo not given) [3-bromocamphor] | > 10 µM | > 10 µM | > 10 µM | > 10 µM | 0 | 0 | 0 | 0 | 88.5% | 94.3% | 96.6% | 95.2% | 94.8% | 91.8% | 102% | 92.2% | 103% | 104% | 99.6% | 95.1% | 100% | 97.1% | 101% | 94.1% | 87.3% | 94.3% | 101% | 104% | – | – | – | – | – | –
4 | O=c1[nH]cnc2ccccc12 [4-HQN] | > 10 µM | > 10 µM | > 10 µM | > 10 µM | 0 | 0 | 0 | 0 | 86.3% | 94.6% | 91% | 101% | 107% | 99.9% | 93.8% | 94.8% | 92.1% | 100% | 95.2% | 98.7% | 94.5% | 101% | 102% | 104% | 86.9% | 113% | 99.1% | 108% | – | – | – | – | – | –
5 | Cc1ccc2c(c1)=C(c1ccccc1)C(C1=NN(C(=O)CCC(=O)O)C(c3ccc(Br)cc3)C1)C(=O)N=2 (stereo not given) [DQP-1105] | > 10 µM | > 10 µM | > 10 µM | > 10 µM | 0 | 0 | 0 | 0 | 94.1% | 97.7% | 97.2% | 90.2% | 96.1% | 95.9% | 100% | 100% | 97.7% | 96.9% | 102% | 110% | 97.4% | 100% | 94.9% | 106% | 105% | 97.9% | 95.2% | 105% | – | – | – | – | – | –
6 | CCc1c(O)cc(O)c(C(=O)c2ccc(OCCN3CCOCC3)c(OC)c2)c1CC(=O)N(CCOC)CCOC [KW-2478] | 1.14 µM | > 10 µM | 2.93 µM | 1.33 µM | 5.9 | 0 | 3 | 9.6 | 110% | 96.3% | 101% | 77.6% | 46.5% | 98.6% | 103% | 96.1% | 99.1% | 100% | 98.8% | 95.3% | 100% | 98.3% | 47.5% | 108% | 103% | 109% | 69.1% | 5.8% | 5.4 | 104% | 110% | 100% | 76.9% | 53.4%
7 | O=C1CN2Cc3c(ccc(Cl)c3Cl)N=C2N1 [anagrelide] | > 10 µM | > 10 µM | – | > 10 µM | 0 | 0 | – | 0 | 101% | 97.8% | 97.6% | 99.8% | 96.9% | 106% | 107% | 103% | 102% | 99.3% | – | – | – | – | – | 101% | 102% | 104% | 101% | 96.7% | – | – | – | – | – | –
